Data on 1 molecule can be found in publication PMC6694155, “PTPσ inhibitors promote hematopoietic stem cell regeneration” (Nature Communications, 2019).

The target of assay [1] is T1, PTPσ-p250GAP complex in BM KSL cells (Mus musculus, UniProt B0V2N1).
T1 construct: endogenous in cells; host or cells: primary bone marrow KSL (c-kit+ Sca-1+ lin-) cells of C57BL/6 mice
The experiment in a line: Proximity ligation assay. The class given is cell-based. Conditions: 1 μg/mL DJ001, 1 h. As to the method: A PLA assay was performed by using the Duolink In Situ Red Starter Kit (Millipore Sigma) to detect the binding between PTPσ and p250GAP proteins. BM KSL cells from C57BL/6 mice were sorted by fluorescence-activated cell sorting and then plated onto fibronectin pre-coated chamber slides overnight. The next day, cells were treated with 1 μg/mL DJ001 or vehicle (equal volume of DMSO) for 1 h at 37 °C. Cells were then fixed with 4% paraformaldehyde (PFA) for 20 min. The slides were blocked with Duolink blocking solution and incubated with rabbit anti-ARHGAP32 polyclonal antibody (Bioss Antibodies, #bs-9296R, 1:50 dilution) and goat anti-PTPσ (K-19) polyclonal antibody (Santa Cruz Biotechnology, #sc-10873, 1:50) overnight at 4 °C. Cells were imaged using a Leica SP8 Confocal Microscope equipped with a ×63 objective lens. A white light laser set to 580 nm was used to excite dsRed and a UV laser was used to excite 4′,6-diamidino-2-phenylindole (DAPI). Analysis was performed using the spots detection function in IMARIS 9.0.2 (Bitplane).

Assay [2] concerns BM KSL cells. The experiment in a line: CFC assay after lentiviral shRac1 or shBcl2l1 silencing and 300 cGy. Type of assay: cell-based, mouse. To be noted: for Figure 3i: BFU-E / Figure 3i: CFU-GM / Figure 3i: GEMM: 300 cGy, replicates. As to the method:
Rac1 CDS-targeting- and Bcl2l1 CDS-targeting shRNA in lentiviral plasmid (TRCN0000310888 and TRCN0000004685) and control shRNA (SHC216V) were purchased from Sigma Aldrich. […]. Viral particles were collected after 24 h and 48 h. […] Infected cells were collected the next day and irradiated with 300 cGy followed by treatment with or without 1 μg/mL DJ001, prior to CFC assay.
CFC assays (colony-forming unit-granulocyte monocyte), burst-forming unit-erythroid, and CFU-GEMM were performed using MethoCult GF M3434 (Stemcell Technologies)[6]. For all in vitro assays, BM CD34^−KSL cells, KSL cells, and Lin^− cells were cultured in TSF media (IMDM, 10% FBS, 1% pen-strep, 20 ng/mL recombinant mouse TPO, 125 ng/mL recombinant mouse SCF, 50 ng/mL recombinant mouse Flt3 ligand). Recombinant mouse SCF, Flt3 ligand, and TPO were purchased from R&D Systems. For competitive repopulation assays, BM cells were isolated from donor 10–12-week-old female CD45.2^+ mice. Recipient 10-week-old female CD45.1^+ B6.SJL mice were irradiated with 950 cGy TBI using a Cs137 irradiator and donor BM cells were administered via tail vein injection along with a competing dose of 1 × 10^5 non-irradiated host BM cells. Multilineage donor hematopoietic cell engraftment was measured in the PB by flow cytometry.

Assay [3] has as its system progeny of irradiated human BM CD34+ cells in NSG mice. The experiment in a line: Human BM transplantation assay in NSG mice. Type of assay: in vivo. The protocol: Human BM mononuclear cells were purchased from AllCells. Cryopreserved human BM cells were recovered in IMDM + 10% FBS + 1% penicillin–streptomycin and then positively selected for CD34^+ stem/progenitor cells by using CD34 MicroBead Kit (Miltenyi Biotec, #130-046-702, 1:5). CD34^+ cells were cultured in human TSF media (IMDM, 10%FBS, 1% pen-strep, 20 ng/mL recombinant human TPO, 125 ng/mL recombinant human SCF, 50 ng/mL recombinant human Flt3 ligand (R&D Systems). The progeny of 2 × 10^5 irradiated, human BM CD34^+ cultured for 36 h and treated with DJ001 at 5 μg/mL, were transplanted via tail vein injection into 10–12-week-old NSG mice preconditioned with 275 cGy TBI. Multilineage donor hematopoietic cell engraftment was monitored in the PB and BM by flow cytometry. The PB or BM cells were stained with BV605-conjugated anti-mouse CD45 (BioLegend, #103139, 1:100), AF647-conjugated anti-human CD34 (BioLegend, #343618, 1:100), FITC-conjugated anti-human CD33 (BD Biosciences, #555626, 1:100), V450-conjugated anti-human CD45 (BD Biosciences, #560368, 1:100), APC-conjugated anti-human CD3 (BD Biosciences, #555342, 1:100), and APC-Cy7-conjugated anti-human CD19 (BD Biosciences, #557791, 1:100) antibodies.

Setting [4] is: progeny of irradiated human BM CD34+ cells, individual mice, in % (unit assumed).

Several values for one entry are separate records, joined by “and”; a condition that tells them apart may be missing. Equal entries are not always repeated. Entries after “also recorded” stand apart in the source; their conditions may differ.

T1 sequence (B0V2N1 30-1907, one chain of several): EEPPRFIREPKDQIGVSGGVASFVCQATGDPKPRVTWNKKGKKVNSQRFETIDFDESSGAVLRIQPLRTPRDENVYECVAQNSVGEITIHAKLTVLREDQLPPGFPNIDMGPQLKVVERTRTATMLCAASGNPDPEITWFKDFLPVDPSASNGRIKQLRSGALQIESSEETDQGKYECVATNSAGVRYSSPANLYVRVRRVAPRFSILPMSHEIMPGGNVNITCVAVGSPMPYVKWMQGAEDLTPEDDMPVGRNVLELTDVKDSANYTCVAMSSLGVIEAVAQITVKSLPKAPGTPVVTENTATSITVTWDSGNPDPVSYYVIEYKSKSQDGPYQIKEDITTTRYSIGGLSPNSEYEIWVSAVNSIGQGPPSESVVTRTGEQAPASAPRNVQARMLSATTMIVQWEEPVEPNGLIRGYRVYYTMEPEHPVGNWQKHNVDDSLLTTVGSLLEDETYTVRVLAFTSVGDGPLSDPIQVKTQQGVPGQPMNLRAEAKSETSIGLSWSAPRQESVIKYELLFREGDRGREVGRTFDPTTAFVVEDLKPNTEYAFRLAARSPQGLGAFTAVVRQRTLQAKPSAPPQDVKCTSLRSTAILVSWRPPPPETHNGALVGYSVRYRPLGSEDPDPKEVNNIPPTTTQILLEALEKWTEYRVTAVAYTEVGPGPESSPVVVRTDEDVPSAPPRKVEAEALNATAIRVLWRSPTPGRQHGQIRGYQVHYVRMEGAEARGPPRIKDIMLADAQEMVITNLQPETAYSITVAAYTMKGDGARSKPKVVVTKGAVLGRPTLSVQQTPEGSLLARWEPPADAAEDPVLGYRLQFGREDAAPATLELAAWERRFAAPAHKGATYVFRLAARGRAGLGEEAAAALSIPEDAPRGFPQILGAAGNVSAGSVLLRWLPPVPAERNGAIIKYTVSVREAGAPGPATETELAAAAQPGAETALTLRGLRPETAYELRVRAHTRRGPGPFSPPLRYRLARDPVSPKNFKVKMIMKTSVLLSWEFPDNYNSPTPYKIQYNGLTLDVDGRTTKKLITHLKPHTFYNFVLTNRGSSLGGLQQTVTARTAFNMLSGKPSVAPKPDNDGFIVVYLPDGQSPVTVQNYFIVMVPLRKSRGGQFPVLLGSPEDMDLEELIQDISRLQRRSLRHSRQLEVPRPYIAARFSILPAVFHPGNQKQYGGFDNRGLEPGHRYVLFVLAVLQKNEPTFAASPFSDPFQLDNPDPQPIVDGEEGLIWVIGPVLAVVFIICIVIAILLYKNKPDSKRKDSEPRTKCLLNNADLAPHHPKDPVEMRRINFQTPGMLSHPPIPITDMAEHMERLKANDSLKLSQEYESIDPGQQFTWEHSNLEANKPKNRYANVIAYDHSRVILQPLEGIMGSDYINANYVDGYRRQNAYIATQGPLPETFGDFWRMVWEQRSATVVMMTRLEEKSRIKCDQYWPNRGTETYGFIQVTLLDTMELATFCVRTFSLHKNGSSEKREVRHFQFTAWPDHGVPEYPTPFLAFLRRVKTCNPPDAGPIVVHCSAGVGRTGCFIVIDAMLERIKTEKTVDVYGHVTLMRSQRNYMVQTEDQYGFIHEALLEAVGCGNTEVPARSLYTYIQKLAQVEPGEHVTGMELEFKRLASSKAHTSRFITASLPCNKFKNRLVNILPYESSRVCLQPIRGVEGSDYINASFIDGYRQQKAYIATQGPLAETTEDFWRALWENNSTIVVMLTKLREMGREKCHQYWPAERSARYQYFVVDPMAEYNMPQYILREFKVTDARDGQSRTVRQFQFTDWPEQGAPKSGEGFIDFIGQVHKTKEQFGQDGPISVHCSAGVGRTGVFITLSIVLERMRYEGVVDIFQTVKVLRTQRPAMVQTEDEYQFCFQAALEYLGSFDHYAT

Turning to `O=C(/C=C\Nc1cccc([N+](=O)[O-])c1)c1ccccc1` [DJ001, (Z)-3-((3-nitrophenyl)amino)-1-phenylprop-2-en-1-one], in assay [1], the “co-localization of PTPσ and p250GAP” value was “significantly decreased co-localization”. Further, the “DJ001-mediated recovery of hematopoietic progenitor cells with silencing of Rac1 or Bcl2l1” value in assay [2] (BM KSL cells, 48 h following 300 cGy) is “blocked DJ001-mediated recovery of hematopoietic progenitor cells”. Further, in assay [2] (shBcl-xL), the “Figure 3i: BFU-E” value is given as 1; the “Figure 3i: CFU-GM” value was 9 and 11 and 10; the “Figure 3i: GEMM” value is 2 and 1 (2×). Besides, in assay [2] (shCtrl), the “Figure 3i: BFU-E” value is 2 and 3 (4×) and 4 (2×) and 5 (2×); the “Figure 3i: CFU-GM” value was 26 (3×) and 30 and 29 (2×) and 20 and 31 and 28; the “Figure 3i: GEMM” value is 5 (3×) and 13 and 8 (2×) and 7 and 10 and 9. Further, in assay [2] (shRac1), the “Figure 3i: BFU-E” value is 1 (2×) and 0; the “Figure 3i: CFU-GM” value was 12 and 10 (2×); the “Figure 3i: GEMM” value was 2 and 0 and 3. Moreover, the “engraftment of human CD45+ cells, CD19+ B cells, CD33+ myeloid cells, and CD3+ T cells vs control” value in assay [3] (NSG mice, 12 weeks post transplant) is recorded as “several – fold increased multilineage engraftment; also recorded: substantially increased engraftment”. For the same molecule, in assay [3] (setting [4]), the “Figure 5g (center left panel): human engraftment in NSG mice” value was 0.66 and 2.13 and 0.13 and 1.76 and 1.28 and 0.22 and 0.24 and 0.04 and 0.73 and 2.53 and 0.35; the “Figure 5g (center panel): human engraftment in NSG mice” value was 2.25 and 0.8 and 0.17 and 0.56 and 4.4 and 0.31 and 5 and 1.4 and 1.23 and 5.34 and 6.53; the “Figure 5g (center right panel): human engraftment in NSG mice” value is 0.24 and 0.34 and 1.91 and 0.16 and 0.67 and 0.92 and 0.14 and 0.94 and 0.48 and 4.07 and 1.41 and 1.1; the “Figure 5g (left panel): human engraftment in NSG mice” value was 4.16 and 2.8 and 0.36 and 1.45 and 9.56 and 0.9 and 12.2 and 3.82 and 4.68 and 14.9 and 12.5. Further, the “Figure 5g (right panel): human engraftment in NSG mice” value in assay [3] (setting [4]) is 0.25 and 1.48 and 0.96 and 0.1 and 0.49 and 1.86 and 0.23 and 1.47 and 1.13 and 2 and 5.49 and 5.38.
